# Results reported in publication PMC7970304, “The Effects of Apelin and Elabela Ligands on Apelin Receptor Distinct Signaling Profiles” (Frontiers in Pharmacology, 2021).
# Key:
# [1] = molecular target: T1, APJ (Apelin receptor) (Homo sapiens, UniProt P35414); experiment: Intracellular calcium assay (Fluo-4 NW); type: cell-based
# T1 sequence (P35414 1-380): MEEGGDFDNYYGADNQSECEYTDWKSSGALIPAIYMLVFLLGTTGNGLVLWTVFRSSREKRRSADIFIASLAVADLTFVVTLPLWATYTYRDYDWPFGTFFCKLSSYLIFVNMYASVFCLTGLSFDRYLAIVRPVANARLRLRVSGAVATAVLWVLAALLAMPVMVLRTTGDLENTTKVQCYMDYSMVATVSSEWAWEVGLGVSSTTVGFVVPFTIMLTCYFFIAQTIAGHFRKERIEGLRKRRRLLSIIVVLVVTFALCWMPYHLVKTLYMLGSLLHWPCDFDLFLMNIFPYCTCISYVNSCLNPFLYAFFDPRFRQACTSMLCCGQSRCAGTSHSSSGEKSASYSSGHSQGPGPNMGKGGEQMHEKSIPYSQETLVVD
# Procedure: HEK293 cells stably expressing APJ were plated at 10^4 cells per well in 96-well black microplates pretreated with a 0.1 mg/ml solution of poly-D-lysine for 24 h. Calcium fluorescence signals in cells were measured using the Fluo-4 NW calcium assay kit (Thermo Fisher Scientific) according to the manufacturer’s instructions ([Chen et al., 2014]; [Wang et al., 2017]). Before detection, cells were washed twice with assay buffer (1 × HBSS, 20 mM HEPES). One hundred microlitres of the dye loading solution was added to each well of a 96-well plate. Cells were incubated at 37°C in 5% CO2 humidified atmosphere for 30 min, then at room temperature for an additional 30 min. Cells were stimulated with six ligands (100 nM) for 5 min, then calcium signals were immediately measured on a Mithras LB940 plate reader (Berthold Technologies, Bad Wildbad, Germany) with an excitation wavelength of 485 nm and an emission wavelength of 525 nm. Dose response curve: cells were stimulated with different concentrations of six peptides for 30 s, and calcium fluorescence was detected. The calculation of the calcium fluorescence ratio was described previously ([Chen et al., 2014]).
# The concentration-response data for the ligands in various assays were analyzed to determine the biases of the ligands for G protein dependent signaling or β-arrestin dependent signaling, according to a previously published method ([Kenakin et al., 2012]; [Hager et al., 2016]; [Hothersall et al., 2017]). Briefly, the concentration-response data for each ligand were fitted to the Black–Leff operation model to obtain the values of τ and K A, using the following equation: Response=[A]^nτ^nEm/[A]^nτ^n+([A]KA)^n where [A] is the concentration of the agonist, E m is the maximal response of the system, n is the transducer slope, and K A and τ describe the affinity and efficacy of the agonist, respectively. In the data fitting, the reparametrized form of the equation proposed by [Kenakin et al. (2012)] was used: Response=Em/1+exp{nln[1+exp(β1)/[A]]−nβ2} where β 1 and β 2 are the natural logarithm of K A and τ, respectively, and E m was set to 1. Thus, for each concentration-response curve, a non-linear regression was performed to fit the above equation to give β 1 and β 2 (as well as n). Log (τ/K A) values (“transduction coefficients”) for each ligand vs. each pathway were obtained. […] The ΔΔlog (τ/K A), or Log (Bias), which is the logarithm of the bias factor for a given pathway over a reference pathway (here, intracellular calcium release), was calculated for each ligand as Δlog (τ/K A)–Δlog (τ/K A)Calcium. The 95% confidence interval (CI) was expressed as the mean ± standard error; Log (Bias) values, whose 95% CI crosses 0, were considered statistically insignificant.
# The data were analyzed using GraphPad Prism v5.0. All the data are presented as the mean ± SEM. Differences between groups were compared by one-way analysis of variants (ANOVA), followed by post-hoc tests (Tukey’s test), When p < 0.05, the difference was considered significant. All experiments were repeated at least four times. The dose-response curves were generated using non-linear fitting model log (agonist) vs. response (three-parameters), with Hill Slope held to 1, i.e., Y = Bottom + (Top-Bottom)/(1 + 10^(LogEC50-X)).
# HEK293 cells stably expressed APJ, and in 30 s, the dose response curve stimulated with six peptides was measured. Data represent mean ± SEM from four independent experiments (Supplementary Table S2). With six peptides (B) stimulation, the dose-response curve of GRK2 recruited to APJ was measured by BRET (at 15 min). p < 0.05 was considered as statistically significant. Data represent mean ± SEM from four independent experiments (Supplementary Table S3).
# P<0.05 was considered as statistically significant. Control group (HG, Cells were stimulated with high glucose).
# [2] = molecular target: APJ; parameters: method as in Couvineau et al., 2020; settings: displacement of 125I-pE13F; ref Couvineau et al., 2020; cited from earlier work
# [3] = molecular target: T1, APJ (Apelin receptor); experiment: Radioligand competition binding assay, [125I]-apelin-13, HEK-293/APJ membranes; parameters: APJ membrane preparations were obtained from transiently transfected HEK293 cells; host or cells: HEK293 cells, transiently transfected; membranes prepared; settings: [125I]-apelin-13 competition
# Procedure: APJ membrane preparations were obtained from transiently transfected HEK293 cells. HEK293 cells were cultured in complete DMEM (DMEM plus 10% FBS) for 24 h, until they reached at least 70% confluence. Transfection reagent containing 20 μg of the APJ expression plasmid was added, and the cells were incubated for another 24 h. The cells were then harvested into 25 ml homogenization buffer (HB) [250 mM sucrose and 25 mM HEPES (pH 7.3); adjusted to pH 7.5 at 4°C and then filtered] supplemented with 250 μL phenylmethylsulfonyl fluoride (PMSF), homogenized using an IKA T25 Ultra Turrax (24,000 rpm), and centrifuged at 6,025 rpm for 15 min at 4°C. […]
# The binding reaction was stopped by rapid filtration through polyethyleneimine (PEI)-coated GF/B plates using a cell harvester, and the plates were washed three times with ice-cold wash buffer [50 mM HEPES (pH 7.4), 500 mM NaCl, and 0.1% BSA; filtered and stored at 4°C]. The filtration plates were dried at 37°C for 2 h; 50 μL scintillation cocktail (Perkin Elmer, Wellesley, MA, United States), was added to each well; and the radioactivity was measured using a Perkin Elmer 1450 MicroBeta TriLux Microplate Scintillation and Luminescence Counter.
# The binding reaction was stopped, the plates were washed and dried, the scintillation cocktail was added, and the radioactivity was measured as described above.
# [4] = Ca2+ (reference pathway), reference ligand Apelin-13
structure (smiles),measurement,setting,value
CSCC[C@H](NC(=O)[C@@H]1CSSC[C@H](NC(=O)[C@H](CC(N)=O)NC(=O)[C@H](Cc2c[nH]cn2)NC(=O)[C@H](CCCCN)NC(=O)[C@H](CCCNC(=N)N)NC(=O)[C@@H](N)CC(C)C)C(=O)N[C@@H](CC(C)C)C(=O)N[C@@H](CCC(N)=O)C(=O)N[C@@H](CCCNC(=N)N)C(=O)N[C@@H](CCCNC(=N)N)C(=O)N1)C(=O)N1CCC[C@H]1C(=O)N[C@@H](CC(C)C)C(=O)N[C@@H](Cc1c[nH]cn1)C(=O)N[C@@H](CO)C(=O)N[C@@H](CCCNC(=N)N)C(=O)N[C@H](C(=O)N1CCC[C@H]1C(=O)N[C@@H](Cc1ccccc1)C(=O)N1CCC[C@H]1C(=O)O)C(C)C [Elabela-21],"P vs HG, intracellular calcium",[1]; 0.001 nM,P>0.05
same,"P vs HG, intracellular calcium",[1]; 0.01 nM,P>0.05
same,"P vs HG, intracellular calcium",[1]; 0.1 nM,P>0.05
same,"P vs HG, intracellular calcium",[1]; 1 nM,P>0.05
same,"P vs HG, intracellular calcium",[1]; 10 nM,^*P<0.05
same,"P vs HG, intracellular calcium",[1]; 100 nM,^***P<0.001
same,"P vs HG, intracellular calcium",[1]; 1000 nM,^***P<0.001
same,Bias factor,[1]; [4],1.0
same,Log (Bias),[1]; [4],0.0
same,log (τ/KA),"[1]; Ca2+ pathway, Black–Leff operational model",−1.8
same,Δlog (τ/KA),"[1]; Ca2+ pathway, relative to Apelin-13",−1.6
same,pKi,[2],9.49
same,binding affinity (in words),[3],slightly weaker binding affinity than Elabela-32
